Results as given in the supplement of paper PMC10307832.

How the values were obtained:
Test in all cases: relative viability (nuclei count vs DMSO), 5 days (fraction); higher = more cells survive
Pictilisib + Linsitinib = compound: CS(=O)(=O)N1CCN(Cc2cc3nc(-c4cccc5[nH]ncc45)nc(N4CCOCC4)c3s2)CC1 [Pictilisib] + C[C@]1(O)C[C@@H](c2nc(-c3ccc4ccc(-c5ccccc5)nc4c3)c3c(N)nccn32)C1 [Linsitinib] (partner 1 µM)
How it was run: (§1)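 Relative viability is defined as nuclei in treated wells over nuclei in vehicle wells. Duplicate plates were run and medians reported. Lung cancer cell lines in 1536-well plates were dosed by pin tool one day after seeding, with one drug or with a fixed anchor-drug dose plus five library-drug doses (not always all listed) in √10 steps, and nuclei were counted after 5 days.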

Pictilisib + Tozasertib = compound: CS(=O)(=O)N1CCN(Cc2cc3nc(-c4cccc5[nH]ncc45)nc(N4CCOCC4)c3s2)CC1 [Pictilisib] + Cc1cc(Nc2cc(N3CCN(C)CC3)nc(Sc3ccc(NC(=O)C4CC4)cc3)n2)n[nH]1 [Tozasertib] (partner 0.1 µM)
How it was run: as §1

Pictilisib + Lapatinib = compound: CS(=O)(=O)N1CCN(Cc2cc3nc(-c4cccc5[nH]ncc45)nc(N4CCOCC4)c3s2)CC1 [Pictilisib] + CS(=O)(=O)CCNCc1ccc(-c2ccc3ncnc(Nc4ccc(OCc5cccc(F)c5)c(Cl)c4)c3c2)o1 [Lapatinib] (partner 2 µM)
How it was run: as §1

Pictilisib + Alpelisib = compound: CS(=O)(=O)N1CCN(Cc2cc3nc(-c4cccc5[nH]ncc45)nc(N4CCOCC4)c3s2)CC1 [Pictilisib] + Cc1nc(NC(=O)N2CCC[C@H]2C(N)=O)sc1-c1ccnc(C(C)(C)C(F)(F)F)c1 [Alpelisib] (partner 2 µM)
How it was run: as §1

Pictilisib + Dasatinib = compound: CS(=O)(=O)N1CCN(Cc2cc3nc(-c4cccc5[nH]ncc45)nc(N4CCOCC4)c3s2)CC1 [Pictilisib] + Cc1nc(Nc2ncc(C(=O)Nc3c(C)cccc3Cl)s2)cc(N2CCN(CCO)CC2)n1 [Dasatinib] (partner 0.075 µM)
How it was run: as §1

Cell Line	relative viability (Pictilisib + Linsitinib; first compound 0.02 µM)	relative viability (Pictilisib + Linsitinib; first compound 0.06325 µM)	relative viability (Pictilisib + Linsitinib; first compound 0.6325 µM)	relative viability (Pictilisib + Linsitinib; first compound 2 µM)	relative viability (Pictilisib + Tozasertib; first compound 0.02 µM)	relative viability (Pictilisib + Tozasertib; first compound 0.06325 µM)	relative viability (Pictilisib + Tozasertib; first compound 0.6325 µM)	relative viability (Pictilisib + Tozasertib; first compound 2 µM)	relative viability (Pictilisib + Lapatinib; first compound 0.02 µM)	relative viability (Pictilisib + Lapatinib; first compound 0.06325 µM)	relative viability (Pictilisib + Lapatinib; first compound 0.6325 µM)	relative viability (Pictilisib + Lapatinib; first compound 2 µM)	relative viability (Pictilisib + Alpelisib; first compound 0.02 µM)	relative viability (Pictilisib + Alpelisib; first compound 0.06325 µM)	relative viability (Pictilisib + Alpelisib; first compound 0.6325 µM)	relative viability (Pictilisib + Alpelisib; first compound 2 µM)	relative viability (Pictilisib + Dasatinib; first compound 0.02 µM)	relative viability (Pictilisib + Dasatinib; first compound 0.06325 µM)	relative viability (Pictilisib + Dasatinib; first compound 0.6325 µM)	relative viability (Pictilisib + Dasatinib; first compound 2 µM)
EPLC-272H	1.2	1.19	0.875	0.865	0.26	0.231	0.206	0.179	1.03	1.09	0.658	0.513	1.06	0.877	0.826	0.738	0.304	0.323	0.216	0.142
201T	0.989	1.05	0.902	0.82	0.99	0.963	0.82	0.556	1.02	1.01	0.969	0.933	1.01	1.02	0.979	0.773	0.552	0.506	0.464	0.276
NCI-H3122	0.988	0.963	0.681	0.354	0.323	0.311	0.321	0.142	1.01	1.15	1.13	0.737	0.749	0.723	0.658	0.469	0.876	0.926	0.54	0.179
NCI-H838	1.05	0.891	0.891	0.448	0.266	0.218	0.242	0.149	1.15	0.875	0.728	0.387	1.04	0.968	1.02	0.467	0.346	0.277	0.279	0.217
NCI-H1755	1.02	0.975	0.906	0.53	0.548	0.605	0.475	0.356	1.04	1	0.93	0.537	0.924	0.939	0.892	0.506	0.406	0.415	0.246	0.187
HCC-15	0.852	0.928	0.87	0.762	0.37	0.379	0.275	0.153	0.936	0.91	0.789	0.692	0.829	0.926	0.829	0.714	0.639	0.627	0.492	0.301
NCI-H2087	1.12	1.02	0.918	0.944	0.232	0.228	0.168	0.187	1.12	0.926	1.06	0.952	1.22	1.06	1.02	0.954	0.672	0.822	0.632	0.691
LK-2	0.609	0.537	0.526	0.426	0.209	0.173	0.154	0.158	0.947	1	0.618	0.405	1.16	1.06	0.925	0.905	0.278	0.324	0.185	0.185
HCC-78	0.508	0.413	0.318	0.226	0.427	0.46	0.309	0.281	0.685	0.749	0.594	0.181	0.332	0.279	0.289	0.19	0.379	0.359	0.222	0.189
NCI-H1666	0.744	0.696	0.608	0.431	0.628	0.599	0.627	0.483	0.666	0.725	0.476	0.307	0.982	0.989	0.748	0.428	0.805	0.876	0.568	0.523
EKVX	1.02	0.948	0.749	0.429	0.369	0.324	0.317	0.215	0.212	0.215	0.186	0.136	0.913	0.882	0.761	0.339	0.534	0.414	0.303	0.16
COR-L 105	0.882	0.933	0.819	0.486	0.33	0.303	0.344	0.292	0.394	0.401	0.338	0.325	1.08	0.957	0.861	0.692	0.414	0.283	0.209	0.181
NCI-H322M	0.82	0.837	0.623	0.656	0.494	0.49	0.4	0.282	0.57	0.588	0.493	0.423	0.845	0.8	0.872	0.684	0.226	0.253	0.271	0.243
HARA	0.979	1.06	0.803	0.353	0.127	0.107	0.0682	0.0525	0.703	0.724	0.378	0.354	0.766	0.888	0.768	0.494	0.256	0.246	0.163	0.142
NCI-H2023	0.508	0.414	0.208	0.264	0.416	0.403	0.197	0.0836	0.78	0.611	0.349	0.243	0.546	0.488	0.445	0.32	0.556	0.509	0.182	0.0932
NCI-H1437	0.975	1.05	0.662	0.447	0.383	0.41	0.324	0.242	0.768	0.859	0.605	0.313	0.932	0.912	0.68	0.566	0.445	0.386	0.255	0.178

Cell Line	relative viability (Pictilisib + Linsitinib; first compound 0.02 µM)	relative viability (Pictilisib + Linsitinib; first compound 0.06325 µM)	relative viability (Pictilisib + Linsitinib; first compound 0.6325 µM)	relative viability (Pictilisib + Linsitinib; first compound 2 µM)	relative viability (Pictilisib + Tozasertib; first compound 0.02 µM)	relative viability (Pictilisib + Tozasertib; first compound 0.06325 µM)	relative viability (Pictilisib + Tozasertib; first compound 0.6325 µM)	relative viability (Pictilisib + Tozasertib; first compound 2 µM)	relative viability (Pictilisib + Lapatinib; first compound 0.02 µM)	relative viability (Pictilisib + Lapatinib; first compound 0.06325 µM)	relative viability (Pictilisib + Lapatinib; first compound 0.6325 µM)	relative viability (Pictilisib + Lapatinib; first compound 2 µM)	relative viability (Pictilisib + Alpelisib; first compound 0.02 µM)	relative viability (Pictilisib + Alpelisib; first compound 0.06325 µM)	relative viability (Pictilisib + Alpelisib; first compound 0.6325 µM)	relative viability (Pictilisib + Alpelisib; first compound 2 µM)	relative viability (Pictilisib + Dasatinib; first compound 0.02 µM)	relative viability (Pictilisib + Dasatinib; first compound 0.06325 µM)	relative viability (Pictilisib + Dasatinib; first compound 0.6325 µM)	relative viability (Pictilisib + Dasatinib; first compound 2 µM)
BEN	0.948	0.891	0.947	0.683	0.377	0.425	0.448	0.409	0.715	0.755	0.844	0.498	0.813	1.08	1.03	0.704	0.351	0.3	0.355	0.285
LXF-289	0.989	0.95	0.973	0.771	0.224	0.215	0.155	0.0896	0.91	0.929	0.925	0.793	1.08	1.07	1.06	0.822	0.189	0.212	0.104	0.0692
NCI-H358	0.681	0.685	0.464	0.393	0.0959	0.104	0.103	0.0838	0.49	0.503	0.311	0.29	0.831	0.981	0.769	0.595	0.147	0.148	0.123	0.0945
NCI-H1993	0.774	0.71	0.636	0.655	0.483	0.567	0.5	0.529	0.878	0.895	0.783	0.705	0.656	0.712	0.663	0.625	0.508	0.467	0.483	0.58
NCI-H727	0.267	0.318	0.228	0.258	0.614	0.542	0.568	0.486	0.876	0.825	0.781	0.654	0.715	0.55	0.519	0.376	0.319	0.38	0.292	0.342
LOU-NH91	1.02	0.918	0.798	0.557	0.744	0.664	0.566	0.495	0.787	0.733	0.621	0.525	0.742	0.741	0.697	0.585	0.581	0.546	0.443	0.359
NCI-H1975	0.781	0.821	0.418	0.249	0.821	0.691	0.361	0.107	0.94	0.781	0.541	0.212	0.69	0.564	0.41	0.227	0.368	0.242	0.105	0.144
PC-3 [JPC-3]	0.985	0.945	0.97	0.893	0.84	0.893	0.736	0.784	0.439	0.461	0.426	0.319	1	1.09	1.04	0.976	0.965	1.02	1.03	0.555
NCI-H2126	0.692	0.692	0.609	0.5	0.826	0.807	0.73	0.517	0.801	0.748	0.63	0.462	0.776	0.712	0.679	0.564	0.626	0.566	0.337	0.3
LU99A	0.576	0.468	0.326	0.244	0.338	0.292	0.262	0.163	0.98	1.04	0.574	0.372	0.461	0.61	0.413	0.287	0.514	0.567	0.281	0.204
NCI-H23	0.632	0.641	0.605	0.423	0.326	0.413	0.294	0.35	1.17	1.45	0.952	0.496	0.728	0.77	0.827	0.487	0.864	0.863	0.487	0.234
PC-14	0.934	0.937	0.91	0.588	0.61	0.583	0.641	0.46	0.34	0.302	0.236	0.113	0.924	0.943	1.02	0.766	0.274	0.291	0.17	0.095
A-427	1.11	1.13	1.1	1.08	0.202	0.187	0.19	0.145	0.98	1.09	1	0.932	1.13	1.09	1.06	1.04	0.666	0.616	0.648	0.347
NCI-H596	1.02	0.853	0.643	0.337	0.822	0.901	0.591	0.356	1.1	1.02	0.602	0.367	0.476	0.481	0.523	0.36	0.569	0.537	0.325	0.207
RERF-LC-KJ	0.823	0.881	0.818	0.618	0.5	0.529	0.477	0.352	0.86	0.842	0.771	0.549	0.784	0.712	0.697	0.574	0.802	0.811	0.687	0.451
